Reference: paper PMC2374539, “Anti-tumour effects and pharmacokinetic profile of 17-(5′ -isoxazolyl)androsta-4,16-dien-3-one (L-39) in mice: an inhibitor of androgen synthesis” (British Journal of Cancer, 2000)
Several values for one entry are separate records, joined by “and”; a condition that tells them apart may be missing. Equal values may be shown once. Entries after “also recorded” stand apart in the source; their conditions may differ.

Columns and labels:
[1] = target: T1, human testicular microsomal 17α-hydroxylase/C17,20-lyase (Homo sapiens, UniProt P05093); experiment: Inhibition of 17α-hydroxylase/C17,20-lyase activity in human testicular microsomes ([3H]-acetic acid release); type: biochemical
T1 construct: Testicular and prostatic microsomes were prepared as described previously; from tissue; host or cells: human testis, microsomal fraction
T1 sequence (P05093 1-508): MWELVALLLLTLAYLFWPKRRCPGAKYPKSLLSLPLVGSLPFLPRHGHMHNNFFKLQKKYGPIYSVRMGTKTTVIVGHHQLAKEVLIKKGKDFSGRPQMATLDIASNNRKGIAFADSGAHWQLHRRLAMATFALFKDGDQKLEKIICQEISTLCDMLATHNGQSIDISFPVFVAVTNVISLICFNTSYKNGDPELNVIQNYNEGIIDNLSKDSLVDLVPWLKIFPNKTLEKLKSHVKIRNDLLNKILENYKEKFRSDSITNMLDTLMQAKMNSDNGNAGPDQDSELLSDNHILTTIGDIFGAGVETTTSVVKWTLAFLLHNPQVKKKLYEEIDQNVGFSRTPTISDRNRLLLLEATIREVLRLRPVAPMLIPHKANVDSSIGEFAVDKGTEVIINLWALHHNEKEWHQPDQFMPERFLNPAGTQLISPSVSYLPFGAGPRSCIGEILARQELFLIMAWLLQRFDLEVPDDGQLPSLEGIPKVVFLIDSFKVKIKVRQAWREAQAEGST
Excerpt: (§1) Prostate cancer is second only to lung cancer as the leading cause of death and is the most prevalent cancer amongst men in the USA and Europe and accounts for about a third of all cancers diagnosed each year in men. In the UK, the incidence of prostate cancer has almost doubled over the last 30 years. Similarly, in 1998, it was estimated that more than 334 500 cases were diagnosed and more than 41 800 men died of the disease in the USA (Dijkman and Debruyne, 1996). The prostate gland is under the influence of androgens and often becomes enlarged in older men. […] Localized prostate cancer is curable and although the metastatic form of the disease is difficult to manage, endocrine therapy does reduce the death rate from the disease and is first-line treatment for all patients. In the testis and adrenals, 17-hydroxylase/C17,20 -lyase converts the C21 steroid precursors to the corresponding C19 andro- gens. […] Both T and DHT stimu- late prostatic growth, although DHT plays a much more important role than T in the organogenesis and homeostasis of the prostate (Wilson, 1996). Current endocrine therapies such as orchidectomy and luteinizing hormone releasing hormone (LHRH) agonists result in reduced androgen production by the testis and are useful in the early stages of prostate cancer. However, these treatment options fail to alter androgen production by the adrenals that may contribute androgen precursors to the prostate. The addition of flutamide, an anti-androgen to inhibit the action of androgens on the prostate, is only partially effective as the disease frequently progresses due to mutations in the androgen receptor, which can utilize flutamide as an agonist. […] Androgen- dependent human prostate cancer xenografts (PC-82) were grown in nude mice and the effects of L-39 (50 mg kg-1 day-1 ) on tumour growth and prostate-specific antigen (PSA) levels were determined after 28 days. […] We also evaluated the pharmacokinetic properties of L-39 in male mice in this investigation. […]

Solubility in water = type: physicochemical
[2] = tested on: PC-82 human prostate cancer xenografts; experiment: Human PC-82 prostate cancer xenograft model: tumour volume and weight; type: in vivo, male athymic Ncr-nu mice
Excerpt: as §1

[3] = Gross examination of vital organs, organ and body weights after treatment; type: in vivo, male athymic Ncr-nu mice; conditions: 50 mg kg-1 daily, s.c., 28 days
Excerpt: as §1, with “1996).” for “1996). Current endocrine therapies such as orchidectomy and luteinizing hormone releasing hormone (LHRH) agonists result in reduced androgen production by the testis and are useful in the early stages of prostate cancer. However, these treatment options fail to alter androgen production by the adrenals that may contribute androgen precursors to the prostate. The addition of flutamide, an anti-androgen to inhibit the action of androgens on the prostate, is only partially effective as the disease frequently progresses due to mutations in the androgen receptor, which can utilize flutamide as an agonist.”

T and DHT concentrations = experiment: Testosterone and DHT RIA in serum and PC-82 tumours of treated mice; type: in vivo, male athymic Ncr-nu mice; conditions: 50 mg kg-1 day-1, s.c., 28 days, P < 0.05
Excerpt: as §1, with “1996).” for “1996). Current endocrine therapies such as orchidectomy and luteinizing hormone releasing hormone (LHRH) agonists result in reduced androgen production by the testis and are useful in the early stages of prostate cancer. However, these treatment options fail to alter androgen production by the adrenals that may contribute androgen precursors to the prostate. The addition of flutamide, an anti-androgen to inhibit the action of androgens on the prostate, is only partially effective as the disease frequently progresses due to mutations in the androgen receptor, which can utilize flutamide as an agonist.”

[4] = tested on: LNCaP human prostate cancer cells; set-up: method as in Long et al, 1999; conditions: ref Long et al, 1999; cited from earlier work
[5] = target: T2, 5α-reductase in human prostatic microsomes (Homo sapiens, UniProt P31213); experiment: 5α-Reductase assay in human prostatic (BPH) microsomes; type: biochemical
T2 sequence (P31213 1-254): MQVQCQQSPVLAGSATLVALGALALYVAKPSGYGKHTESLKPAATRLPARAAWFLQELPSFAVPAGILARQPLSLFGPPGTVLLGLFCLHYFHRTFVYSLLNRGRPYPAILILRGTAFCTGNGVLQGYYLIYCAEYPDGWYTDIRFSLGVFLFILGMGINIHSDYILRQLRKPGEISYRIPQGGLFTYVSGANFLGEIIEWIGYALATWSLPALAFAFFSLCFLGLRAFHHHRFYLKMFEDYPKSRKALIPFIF
Excerpt: as §1

[6] = Pharmacokinetic studies after a single s.c. or i.v. bolus dose, plasma HPLC; type: in vivo, male Balb/c mice; set-up: AUC0- / Cmax: unit not given here
Excerpt: Prostate cancer is second only to lung cancer as the leading cause of death and is the most prevalent cancer amongst men in the USA and Europe and accounts for about a third of all cancers diagnosed each year in men. In the UK, the incidence of prostate cancer has almost doubled over the last 30 years. Similarly, in 1998, it was estimated that more than 334 500 cases were diagnosed and more than 41 800 men died of the disease in the USA (Dijkman and Debruyne, 1996). The prostate gland is under the influence of androgens and often becomes enlarged in older men. […] Localized prostate cancer is curable and although the metastatic form of the disease is difficult to manage, endocrine therapy does reduce the death rate from the disease and is first-line treatment for all patients. In the testis and adrenals, 17-hydroxylase/C17,20 -lyase converts the C21 steroid precursors to the corresponding C19 andro- gens. […] Both T and DHT stimu- late prostatic growth, although DHT plays a much more important role than T in the organogenesis and homeostasis of the prostate (Wilson, 1996). Current endocrine therapies such as orchidectomy and luteinizing hormone releasing hormone (LHRH) agonists result in reduced androgen production by the testis and are useful in the early stages of prostate cancer. However, these treatment options fail to alter androgen production by the adrenals that may contribute androgen precursors to the prostate. The addition of flutamide, an anti-androgen to inhibit the action of androgens on the prostate, is only partially effective as the disease frequently progresses due to mutations in the androgen receptor, which can utilize flutamide as an agonist. […] This may be achieved through dual inhibition of 17- hydroxylase/C17,20 -lyase and 5-reductase (Li et al, 1992; Klus et al, 1996). […] Androgen- dependent human prostate cancer xenografts (PC-82) were grown in nude mice and the effects of L-39 (50 mg kg-1 day-1 ) on tumour growth and prostate-specific antigen (PSA) levels were determined after 28 days. […] Pharmacokinetic studies were also conducted in male Balb/c mice. […] (c) 2000 Cancer Research Campaign Keywords: 17-hydroxylase/C17,20 -lyase; 5-reductase; androgens; prostate cancer; pharmacokinetics 74 Received 9 November 1999 Revised 4 February 2000 Accepted 10 February 2000 Correspondence to: AM Brodie British Journal of Cancer (2000) 83(1), 74-82 (c) 2000 Cancer Research Campaign doi: 10.1054/ bjoc.2000.1136, available online at http://www.idealibrary.com on *Present address: Department of Pharmaceutical Sciences, Temple University School of Pharmacy, Philadelphia, PA 19140, USA. Present address: School of Pharmaceutical Sciences, Beijing Medical University, China. Effects of L-39 in vitro and in vivo 75 British Journal of Cancer (2000) 83(1), 74-82 (c) 2000 Cancer Research Campaign advanced prostate cancer (Small et al, 1997). […] 5-Reductase occurs in two isoforms namely, type I and type II. The type II isoenzyme is the predominant form in the human prostate. […] In the present investigation, we describe the effects of L-39, a novel androstene derivative, in vitro and on human prostate cancer xenografts in nude mice. We also evaluated the pharmacokinetic properties of L-39 in male mice in this investigation. […] [21-3 H]-17-hydroxy- pregnenolone ([…] ) was prepared in our laboratory as previously described (Njar et al, 1998). [1,2,6,7-3 H]- Testosterone (96.5 Ci mmol-1 ) and [4-14 C]-dihydrotestosterone (56.5 mCi mmol-1 ) were obtained from Dupont (Boston, MA, USA).

[7] = tested on: LNCaP human prostatic cells grown as tumours; set-up: method as in Long et al, 1999; conditions: ref Long et al, 1999; cited from earlier work
androgen receptors = tested on: androgen receptors; set-up: method as in Long et al, 1999; conditions: L-39 5 μM, R1881 5 nM, LNCaP cultures; ref Long et al, 1999; cited from earlier work
[8] = tested on: prostate-specific antigen (PSA) levels; experiment: PSA ELISA in serum and PC-82 tumours of treated mice; type: in vivo, male athymic Ncr-nu mice; conditions: 50 mg kg-1 day-1, s.c., 28 days, P < 0.01
Excerpt: as §1, with “1996).” for “1996). Current endocrine therapies such as orchidectomy and luteinizing hormone releasing hormone (LHRH) agonists result in reduced androgen production by the testis and are useful in the early stages of prostate cancer. However, these treatment options fail to alter androgen production by the adrenals that may contribute androgen precursors to the prostate. The addition of flutamide, an anti-androgen to inhibit the action of androgens on the prostate, is only partially effective as the disease frequently progresses due to mutations in the androgen receptor, which can utilize flutamide as an agonist.”

[9] = target: T1, human testicular microsomal 17α-hydroxylase/C17,20-lyase; set-up: method as in Nnane et al, 1998; conditions: ref Nnane et al, 1998; cited from earlier work
[10] = intravenous 50 mg kg-1, single bolus, mouse plasma
[11] = subcutaneous 50 mg kg-1, single bolus, mouse plasma
[12] = subcutaneous 100 mg kg-1, single bolus, mouse plasma

In the case of `C[C@]12CCC(=O)C=C1CC[C@@H]1[C@@H]2CC[C@]2(C)C(c3ccno3)=CC[C@@H]12` [L-39, 17-(5′-Isoxazolyl)androsta-4,16-dien-3-one], the “type of inhibition of 17α-hydroxylase/C17,20-lyase” value [1] is reported as “non-competitive”, the Ki ([1]; Lineweaver-Burke slopes) is reported as 0.022 µM and the IC50 ([1]; substrate 17-hydroxypregnenolone, 1 h, pH 7.4) is reported as 0.059 µM. The solubility in water (Solubility in water) was “poorly soluble in water”, the “diminution of PC-82 tumour weights” value ([2]; 50 mg kg-1 daily, s.c., 28 days, vs control) was 70% and the “increase in tumour volume over 28 days” value ([2]; 50 mg kg-1 daily, s.c., control increased twofold) was 1.25 fold. The “potency in reducing growth of PC-82 tumour xenografts, compared with other therapies” value ([2]; 50 mg kg-1 day-1, s.c., 28 days) was “to a similar extent as castration or flutamide treatment”, the “gross examination of liver, kidney, heart and adrenal gland” value [3] was “did not reveal toxicity” and the “weight of vital organs and body weight” value [3] was “did not change significantly”. For the same molecule, the “reduction of DHT concentration in PC-82 tumour xenografts” value (T and DHT concentrations) was 94%, the “reduction of T concentration in PC-82 tumour xenografts” value (T and DHT concentrations) was 64% and the “proliferation of LNCaP cells in culture” value [4] was “inhibits proliferation”. The “type of inhibition of 5α-reductase” value [5] was “competitive”, the Ki ([5]; Lineweaver-Burke slopes, read-out: Ki, inhibition of 5α-reductase) was 0.028 µM and the IC50 ([5]; T 40 nM, 10 min, pH 7.4, read-out: IC50, inhibition of 5α-reductase) was 0.033 µM. The metabolism in mice ([6]; initial observations, metabolite not characterized) was “metabolized to a more polar metabolite”, the “time after intravenous administration at which L-39 was not detectable in plasma” value ([6]; intravenous 50 mg kg-1) was 4 h and the AUC0- [6, 10] was 14.41. The “CI (total clearance)” value [6, 10] was 3.47 0.14 l h-1 kg-1 and 3.5 l h-1 kg-1, the “Kel (terminal elimination rate constant)” value [6, 10] was 1.05 0.05 h-1 and 1.052 h-1 and the MTR [6, 10] was 1.15 h. The T1/2 [6, 10] was 0.66 h, the Vd [6, 10] was 3.30 0.13 l kg-1 and the AUC0- [6, 11] was 4.09. For the same molecule, the “CI (total clearance)” value [6, 11] was 12.24 0.48 l h-1 kg-1, the Cmax [6, 11] was 1.42 and the Kel [6, 11] was 0.46 0.02 h-1. It also gave an MTR [6, 11] of 2.52 h, a T1/2 [6, 11] of 1.51 h and a Tmax [6, 11] of 0.75 h. The Vd [6, 11] was 26.73 1.04 l kg-1, the AUC0- [6, 12] was 4.04 and the “CI (total clearance)” value [6, 12] was 24.78 1.0 l h-1 kg-1. The Cmax [6, 12] was 1.30, the Kel [6, 12] was 0.53 0.03 h-1 and the MTR [6, 12] was 2.41 h. The T1/2 [6, 12] was 1.31 h, the Tmax [6, 12] was 1.0 h and the Vd [6, 12] was 46.80 1.84 l kg-1. For the same molecule, the “growth of LNCaP tumours in male SCID mice” value [7] was “effective at slowing LNCaP human prostatic cells grown in male SCID mice as tumours; also recorded: more effective than flutamide”, the “anti-androgenic activity: binding of labelled R1881 to androgen receptors” value (androgen receptors) was “preventing the labelled synthetic androgen R1881 (5 n M) from binding to the androgen receptors” and the “reduction of tumour PSA levels” value [8] was 50%.
In the case of `CC(C)(C)NC(=O)[C@H]1CC[C@H]2[C@@H]3CC[C@H]4NC(=O)C=C[C@]4(C)[C@H]3CC[C@]12C` [finasteride], the “activity against 17-hydroxylase/C17,20-lyase” value [9] is listed as “no activity”.
